Experimental data reported in patent US9114159B2, “Transcription factors in neuronal dendrites-dendritic protein synthesis and cell death” (The Trustees of the University of Pennsylvania, priority 2005, dated 2015).
“Also recorded” adds a separate entry of the source. Where two headings read alike, the source gives them in different places. *1 amine or outer side, *2 acyl side, *3 side chain or, on linkers, in order; H or OH if unused. Where a SMILES comes first, the peptide text is derived from it. Bridges are numbered along the chain shown (N, C = ends). Roman numbers before positions name the chains, in order. [ ]: non-standard residue; d: D form. Actinocin(9to1) = Cc1c2oc3c(C)ccc(C(=O)[*:1])c3nc-2c(C(=O)[*:2])c(N)c1=O; NMeV = CN[C@H](C(=O)O)C(C)C; Sar = CNCC(=O)O

Assays:
[1] = tested on: primary rat hippocampal neurons; conditions: for effect on Elk-1 induced cell death: Elk-1 GFP mRNA photoporated into dendrites
Protocol: Cultured primary rat hippocampal neurons were bathed in 10-15 μg capped mRNA in 1 ml extracellular saline at 37° C. In some cases, neurons were pre-incubated with the translation inhibitor, anisomycin (5 μM), the mitochondrial PTP inhibitor, bongkrekic (BKA; 25 μM), or the transcriptional inhibitor, actinomycin D (1 μg/ml).
Samples were imaged and photoporated using a Prairie Ultima multiphoton scan head attached to an Olympus BX61 fixed-stage upright microscope equipped with a 40× water immersion lens (LUMPlanFI/IR, N.A. 0.8). 8 to 16 points were selected over a 2 μm×2 μm area for photoporation. A Ti-sapphire laser (Mai-Tai®, Spectral-Physics, Mountain View, Calif.) was used to make transient poration sites for 5 milliseconds at 30 mW (at back aperture of lens) energy. After photoporation, samples were transferred to an Olympus IX81 inverted microscope for simultaneous GFP fluorescence and DIC imaging. All images were processed with Metamorph (Universal Imaging Corporation) image processing software. For cell death assays, a LIVE/DEAD cell viability/cytotoxicity kit (Molecular Probes) was used according to the manufacturer's instructions.
A cell viability/cytotoxicity assay (Invitrogen Molecular Probes, Carlsbad, Calif.) was used to confirm the morphological observations of cell death following Elk-1 GFP mRNA photoporation. […] Obvious morphological signs of cell death may take hours to become apparent, whereas the use of a nuclear dye allows rapid identification of neurons that are in the process of dying.

[2] = tested on: primary rat hippocampal neurons; test: Elk-1 immunocytochemistry after mGluR stimulation; format: cell-based; conditions: 30-minute application, 50 μM, n=7
Text: Immunocytochemistry/immunohistochemistry: Three polyclonal antibodies raised against Elk-1 (Santa Cruz Biotechnology, Santa Cruz, Calif.; Cell Signaling Technology, Beverly, Mass.) were used to detect Elk-1 protein in primary rat hippocampal cultures and in adult rat brain sections. A monoclonal antibody raised against a synthetic phospho-peptide of Elk-1 was used to detect Elk-1 protein phosphorylated at S383 (Cell Signaling Technology). […] For stimulation experiments, cultured neurons were placed in warm Hals buffer (pH=7.4) and treated with the Group I mGluR agonist, dihydrophenylglycine (DHPG; Tocris Cookson Inc., Ellisville, Mo.) at a final concentration of 50 μM for 30 minutes at 37° C. prior to fixation and immunocytochemistry.

[3] = tested on: primary rat hippocampal neurons; test: DAPI and Hoechst nuclear stains for pycnotic nuclei; format: cell-based; conditions: cells treated for 3 hours with 30 μM
Protocol: FIG. 5A is a graph depicting cell counts after Elk-1 over-expression. Neurons electroporated with Elk-1 in a pcDNA vector were stained with a MAP2 antibody at 48, 72, 96 and 168 hours after plating. Two 5× images of MAP2 immunoreactive neurons were taken for each experiment, and MAP2 positive neurons were counted manually. Shown are the percent decreases in MAP2 positive neurons compared to control. (Line=best fit) FIG. 5B are images of MAP2 immunoreactivity from neurons electroporated with a control pcDNA vector (right image) or with Elk-1 in pcDNA (left image). FIG. […] Scale bar=20 μm.
In order to assess whether neurons were dying via apoptosis or necrosis following Elk-1 over-expression, DAPI and Hoechst nuclear stains were used to look for evidence of pycnotic nuclei, characteristic of an apoptotic phenotype.

[4] = tested on: primary rat corticol neurons; test: Elk-1 association with mitochondria, Western blotting of mitochondrial fractions; format: cell-based; conditions: Western blotting after drug application
Protocol: Mitochondrial fractionation for western blots: A mitochondrial isolation kit (Pierce) was used according to the manufacturer's instructions to isolate mitochondria from primary neuronal cultures. Once isolated, mitochondria were lysed in buffer containing: 150 mM NaCl, 1% NP-40, 0.5% Deoxycholic acid, 0.1% SDS, 50 mM Tris, 10 ug/mL Aprotinin, 5 ug/mL Leupeptin, 1 mM sodium orthovanidate, 1 mM PMSF and 100 ug/mL TPCK. Lysate was then used for western blotting with the following antibodies: Elk-1 (Cell Signaling Technology), VDAC 1 (Santa Cruz Biotechnology), NeuN (Abcam).
To examine whether specific cellular insults could increase or decrease the association between Elk-1 and mitochondria, primary rat corticol neurons were exposed to a variety of compounds known to induce cell death in neurons, and mitochondrial fractions were then isolated and used for Western blotting.

CO[C@H](C/C=C\C=C\CC/C=C/C[C@H](C)/C=C/C(=C\C(=O)O)CC(=O)O)/C(C)=C\C=C(/C)C(=O)O [BKA, bongkrekic acid]
effect on Elk-1 induced cell death ([1]; pre-incubation with mitochondrial PTP inhibitor 25 μM, n=10): blocked; also recorded: cells did not die

N[C@H](C(=O)O)c1cc(O)cc(O)c1 [DHPG, dihydrophenylglycine]
Elk-1 immunoreactivity in both cell somas and dendrites [2]: substantial increase

Cc1c2oc3c(C)ccc(C(=O)N[C@@H]4C(=O)N[C@H](C(C)C)C(=O)N5CCC[C@H]5C(=O)N(C)CC(=O)N(C)[C@@H](C(C)C)C(=O)O[C@@H]4C)c3nc-2c(C(=O)N[C@@H]2C(=O)N[C@H](C(C)C)C(=O)N3CCC[C@H]3C(=O)N(C)CC(=O)N(C)[C@@H](C(C)C)C(=O)O[C@@H]2C)c(N)c1=O [actinomycin D] (I: T[dV]P[Sar][NMeV] / II: T[dV]P[Sar][NMeV]; ester I:1-I:C, II:1-II:C; linker I:N-II:N via Actinocin(9to1))
effect on Elk-1 induced cell death ([1]; pre-incubation with transcriptional inhibitor 1 μg/ml, n=7): inhibited

COc1ccc(C[C@H]2NC[C@H](O)[C@H]2OC(C)=O)cc1 [anisomycin]
effect on Elk-1-induced cell death ([1]; pre-incubation with translational inhibitor 5 μM, Elk-1 GFP mRNA photoporated): blocked; also recorded: absence of cell death

CC[C@@]1(O)C(=O)OCc2c1cc1n(c2=O)Cc2cc3ccccc3nc2-1 [camptothecin]
pycnotic nuclei [3]: presence of pycnotic nuclei | Elk-1 association with mitochondria [4]: increased its association with mitochondria
